In experiment [1] the target is T1, VIM-2 (Escherichia coli, UniProt Q5U7L7).
T1 construct: Li's Laboratory, Sichuan University (collaborator, a gift and not a purchase)

The target of experiment [2] is T2, NDM-1 (Klebsiella pneumoniae, UniProt C7C422).
T2 construct: Li's Laboratory, Sichuan University (collaborator, a gift and not a purchase)
The following applies: Figure 1, reported inhibitors; read-out: NDM-1 IC50 (reported MBL inhibitors); cited from earlier work.

Experiment [3] addresses T3, IMP-1 (Serratia marcescens, UniProt P52699).
T3 construct: Li's Laboratory, Sichuan University (collaborator, a gift and not a purchase)
The following applies: Figure 1, reported inhibitors; read-out: IMP-1 IC50 (reported MBL inhibitors); cited from earlier work.

In experiment [4] the test system is CfiA. As to conditions: Figure 1, reported natural product; read-out: CfiA IC50 (reported MBL inhibitors); cited from earlier work.
For experiment [5], the system named is B3 L1 MBL. Further details: method as in PMID 17999929, PMID 20625539, PMID 25893049. As to conditions: Figure 1, reported inhibitor; read-out: L1 IC50 (reported MBL inhibitors); cited from earlier work.
Experiment [6] concerns VIM-5. Briefly: VIM-5 inhibition assay (FC5 fluorogenic substrate). In kind it is biochemical. As to conditions: mean ± SD (n = 3). The protocol: (§1) Then, we tested all the target compounds against other B1 MBL enzymes, including NDM-1, IMP-1, VIM-1, and VIM-5 (Table 1); all the assay conditions (including enzyme/substrate concentrations) are the same as that previously used. […]. […].
(§2) All the target compounds were freshly prepared in 100 mM DMSO stock solutions. All the MBL and SBL enzymes used in this study were obtained from our collaborator, Li’s Laboratory in Sichuan University. Each compound was initially evaluated for inhibitory activity to MBL and SBL enzymes at 100 and 10 μM, by preincubation with the appropriate amount of enzymes in the assay buffer for 10 min, followed by adding the substrate FC5 to initiate the reactions, and monitoring the fluorescence at λex of 380 nm and λem of 460 nm. The IC50 values for the compounds (with 10 different concentrations in threefold dilution) were further determined. All determinations were tested in triplicate. The IC50 values were obtained from the plot of activity versus inhibitor concentration by using the GraphPad Prism software.

For experiment [7], the target named is T2, NDM-1. Briefly: NDM-1 inhibition assay (FC5 fluorogenic substrate). In kind it is biochemical. The following applies: mean ± SD (n = 3). The procedure:
as §1, §2

The target in experiment [8] is T1, VIM-2. Briefly: VIM-2 inhibition assay (FC5 fluorogenic substrate). In kind it is biochemical. The following applies: for inhibition at 10 µM / inhibition at 100 µM: mean ± SD (n = 3); for IC50: 10 concentrations in threefold dilution, triplicate, read-out: IC50 against VIM-2. The procedure:
as §2

Experiment [9] addresses T4, VIM-1 (Pseudomonas aeruginosa, UniProt A0A0F7KYQ8).
T4 construct: Li's Laboratory, Sichuan University (collaborator, a gift and not a purchase)
Description: VIM-1 inhibition assay (FC5 fluorogenic substrate). In kind it is biochemical. The following applies: mean ± SD (n = 3). The procedure: as §1, §2

In experiment [10] the target is T3, IMP-1. Description: IMP-1 inhibition assay (FC5 fluorogenic substrate). In kind it is biochemical. The following applies: for inhibition at 10 µM / inhibition at 100 µM: mean ± SD (n = 3). The protocol: as §1, §2
Experiment [11] deals with T5, TEM-1 (Escherichia coli, UniProt P62593).
T5 construct: Li's Laboratory, Sichuan University (collaborator, a gift and not a purchase)
T5 sequence (P62593 24-286 limits assumed): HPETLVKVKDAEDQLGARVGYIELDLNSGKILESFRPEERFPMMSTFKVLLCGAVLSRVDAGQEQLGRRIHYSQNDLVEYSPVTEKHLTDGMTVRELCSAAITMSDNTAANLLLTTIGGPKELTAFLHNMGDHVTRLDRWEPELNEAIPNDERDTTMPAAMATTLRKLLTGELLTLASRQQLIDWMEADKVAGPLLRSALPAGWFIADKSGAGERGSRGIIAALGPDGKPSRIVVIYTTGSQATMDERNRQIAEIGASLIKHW
Briefly: TEM-1 SBL inhibition assay (counter screen). In kind it is biochemical. The following applies: mean ± SD (n = 3). The protocol:
(§3) Considering that MBLs and SBLs are two catalogs of β-lactamases, we further tested the compound 5l against some representative SBL enzymes, including KPC-2 (Klebsiella pneumoniae carbapenemase 2), TEM-1, AmpC, and OXA-48 (Oxacillinase 48), with the aim of investigating its selectivity; particularly, this is used as a counter screening to indicate the specific inhibition to MBLs.
as §2
A general note: The purpose of a counterscreen is to sort out artefacts and off-target activity.

Experiment [12] addresses T6, OXA-48 (Klebsiella pneumoniae, UniProt Q6XEC0).
T6 construct: Li's Laboratory, Sichuan University (collaborator, a gift and not a purchase)
Description: OXA-48 SBL inhibition assay (counter screen). In kind it is biochemical. The protocol:
(§4) Considering that MBLs and SBLs are two catalogs of β-lactamases, we further tested the compound 5l against some representative SBL enzymes, including KPC-2 (Klebsiella pneumoniae carbapenemase 2), TEM-1, AmpC, and OXA-48 (Oxacillinase 48), with the aim of investigating its selectivity; particularly, this is used as a counter screening to indicate the specific inhibition to MBLs. […] […].
as §2

Experiment [13] concerns the target T7, KPC-2 (Klebsiella pneumoniae, UniProt Q9F663).
T7 construct: Li's Laboratory, Sichuan University (collaborator, a gift and not a purchase)
Description: KPC-2 SBL inhibition assay (counter screen). In kind it is biochemical. As to conditions: mean ± SD (n = 3). The procedure:
as §4, §2

The subject of experiment [14] is AmpC. Briefly: AmpC SBL inhibition assay (counter screen). Type of experiment: biochemical. As to conditions: 10 μM; mean ± SD (n = 3). The protocol: as §3, §2
Where [15] appears, read: Figure 1, reported inhibitors; read-out: VIM-2 IC50 (reported MBL inhibitors); cited from earlier work.

By IC50 is commonly meant the point on the concentration scale where inhibition reaches its midpoint. As a reminder, the Ki is the equilibrium dissociation constant of an inhibitor or competing ligand from its target. As a reminder, the inhibition is the percentage by which the read-out fell short of the control.

Where two headings read alike, the source gives them in different places. Some results are limits rather than exact numbers.

T3 sequence (P52699 19-246 limits assumed): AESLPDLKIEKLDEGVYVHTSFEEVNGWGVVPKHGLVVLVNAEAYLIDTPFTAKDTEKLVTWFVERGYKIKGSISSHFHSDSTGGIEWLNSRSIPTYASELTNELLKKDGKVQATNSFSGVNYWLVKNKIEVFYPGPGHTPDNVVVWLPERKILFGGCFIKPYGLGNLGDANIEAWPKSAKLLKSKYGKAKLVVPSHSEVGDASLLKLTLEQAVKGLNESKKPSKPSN
T7 sequence (Q9F663 25-293, looked up): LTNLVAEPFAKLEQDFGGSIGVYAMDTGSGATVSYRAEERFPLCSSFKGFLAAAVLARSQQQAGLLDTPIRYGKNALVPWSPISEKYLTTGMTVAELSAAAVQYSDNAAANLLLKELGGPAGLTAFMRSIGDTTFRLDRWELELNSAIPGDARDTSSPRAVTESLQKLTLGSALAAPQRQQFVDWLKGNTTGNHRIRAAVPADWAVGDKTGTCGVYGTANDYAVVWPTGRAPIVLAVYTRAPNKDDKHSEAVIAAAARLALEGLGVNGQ
T6 sequence (Q6XEC0 23-265 limits assumed): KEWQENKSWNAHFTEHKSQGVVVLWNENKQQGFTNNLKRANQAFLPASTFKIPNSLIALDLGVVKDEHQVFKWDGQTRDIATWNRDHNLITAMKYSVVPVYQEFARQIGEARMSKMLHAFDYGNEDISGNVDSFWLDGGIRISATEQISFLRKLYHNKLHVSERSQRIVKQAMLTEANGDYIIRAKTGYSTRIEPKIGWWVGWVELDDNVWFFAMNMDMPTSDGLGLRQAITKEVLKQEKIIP
T2 sequence (C7C422 29-270, looked up, species assumed): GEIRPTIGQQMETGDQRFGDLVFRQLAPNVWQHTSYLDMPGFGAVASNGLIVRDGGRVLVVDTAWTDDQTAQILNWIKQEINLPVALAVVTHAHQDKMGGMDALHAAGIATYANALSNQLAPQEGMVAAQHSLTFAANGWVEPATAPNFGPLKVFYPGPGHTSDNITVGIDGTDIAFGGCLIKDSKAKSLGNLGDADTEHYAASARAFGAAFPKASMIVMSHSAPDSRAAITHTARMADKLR

With `C[C@H](CS)C(=O)N[C@@H](C(=O)O)c1ccc(O)cc1` [II], the IC50 is 0.0137 µM in experiment [1] (setting [15]) and 3.57 µM in experiment [2].

`CO[C@@H]1O[C@@H](C)Cc2oc3cc(O)c(O)c(C(=O)O)c3c(=O)c21` [X]: the IC50 in experiment [3] was 113 µM; in experiment [4] it was 29 µM.

Turning to `Cc1ccccc1-c1nnc(S)n1/N=C/c1ccccc1C(=O)O` [V], the IC50 in experiment [5] was 15 µM.

Take `N[C@@H](CN[C@@H](CN[C@@H](CC(=O)O)C(=O)O)C(=O)O)C(=O)O` [XI, AMA]: the IC50 in experiment [1] (setting [15]) is 9.6 µM; in [2], 4 µM.

On to `O=C(/C=C/c1ccc(O)c(O)c1)O[C@H](Cc1ccc(O)c(O)c1)C(=O)O` [XII, Rosmarinic acid], for which the IC50 in experiment [1] (read-out: VIM-2 IC50 (reported MBL inhibitors); Figure 1, reported inhibitors; cited from earlier work) is 41.5 µM.

For `O=C(CSc1nnc(-c2ccccc2C(=O)O)[nH]1)Nc1nc2ccccc2s1` [IV], the Ki in [1] (Figure 1, reported inhibitor; read-out: VIM-2 Ki (reported MBL inhibitors); cited from earlier work) was 1.2 µM.

For the compound `C[C@H](CS)C(=O)N[C@@H](Cc1coc2ccccc12)B(O)O` [III], the values for the IC50 in [1] (setting [15]) and in experiment [2] were 0.44 µM and 37.9 µM, respectively.

As to `Fc1cccc(-c2nnc3n2CCCS3)c1` [5e, 3-(3-Fluorophenyl)-6,7-dihydro-5H-[1,2,4]triazolo[3,4-b][1,3]thiazine], the “Inhibition % VIM-5” value in [6] (@ 100 μM) is reported as 6 ± 1/– %. The inhibition at 10 µM is 20% in [7], 15% in experiment [8] and 4% in [10]. Further, the inhibition at 100 µM in [7] stood at 10 ± 2%; in experiment [8], 34 ± 3%; in [9] it was 22 ± 3%; in experiment [10], 8 ± 1%.

In the case of `c1csc(-c2nnc3n2CCCS3)c1` [10b, 3-(Thiophen-2-yl)-6,7-dihydro-5H-[1,2,4]triazolo[3,4-b][1,3]thiazine], the “Inhibition % VIM-5” value in experiment [6] (@ 10 μM) was found to be 21 ± 2%; in experiment [6] (@ 100 μM), 18 ± 2%. Moreover, the inhibition at 10 µM in [7] is 8%; in experiment [8] it was 16%; in experiment [9] (@ 10 μM) it was 32%; in experiment [10] it was 27%. Besides, the inhibition at 100 µM in [7] was 12 ± 2%; in experiment [8], 30 ± 3%; in experiment [9], 30 ± 2%; in experiment [10], 57 ± 6%. Further, the IC50 in experiment [10] (10 concentrations in threefold dilution, triplicate, read-out: IC50 against IMP-1) is above 100 µM.

In the case of `NCCN[C@H]1CC[C@H](CC(=O)N[C@H]2Cc3cccc(C(=O)O)c3OB2O)CC1` [IX, taniborbactam], the IC50 in experiment [1] (setting [15]) was 0.0005 µM.

Turning to `Brc1ccc(-c2nnc3n2CCCS3)cc1` [5l, 3-(4-Bromophenyl)-6,7-dihydro-5H-[1,2,4]triazolo[3,4-b][1,3]thiazine], the inhibition at 10 µM in [11] (10 μM) was 9 ± 1%; in [12] (read-out: Inhibition % OXA-48), 7 ± 1%; in experiment [13] (10 μM) it was 2 ± 1%; in experiment [7], 10%; in experiment [8], 53%. Further, in experiment [11] (100 μM), the “Inhibition % TEM-1” value is reported as “No or low inhibitory activities”. Also, the inhibition at 100 µM in experiment [11] (100 μM) was determined as 20 ± 3%; in experiment [12] (read-out: Inhibition % OXA-48), 17 ± 2%; in experiment [13] (100 μM), 8 ± 2%; in experiment [7], 8 ± 1%; in experiment [8], 86 ± 5%; in [9], 23 ± 1%. Moreover, in [12] (100 μM, mean ± SD (n = 3)), the “Inhibition % OXA-48” value was “No or low inhibitory activities”. The “Inhibition % KPC-2” value in [13] (100 μM) was “No or low inhibitory activities”. Further, the “Inhibition % VIM-5” value in experiment [6] (@ 100 μM) is 33 ± 2/– %. For the same compound, the IC50 in [8] was found to be 38.4 µM. Moreover, the “Inhibition % AmpC” value in experiment [14] was found to be 13 ± 2%.

Take `Fc1ccc(-c2nnc3n2CCCS3)cc1` [5j, 3-(4-Fluorophenyl)-6,7-dihydro-5H-[1,2,4]triazolo[3,4-b][1,3]thiazine]: the “Inhibition % VIM-5” value in experiment [6] (@ 100 μM) is 14 ± 1/– %. The inhibition at 10 µM in experiment [7] was 23 ± 2%; in experiment [8], 32%; in experiment [10] it was 13%. In addition, the inhibition at 100 µM in experiment [7] was 23 ± 2%; in experiment [8], 34 ± 3%; in [9], 27 ± 1%; in experiment [10], 8 ± 1%.

As to `Brc1ccc(-c2nnc3n2CCS3)cc1` [5s, 3-(4-Bromophenyl)-5,6-dihydrothiazolo[2,3-c][1,2,4]triazole], the “Inhibition % VIM-5” value in experiment [6] (@ 100 μM) is on record as 14 ± 2/– %. Besides, the inhibition at 10 µM was 29% in [7], 50% in experiment [8] and 9% in experiment [10]. Besides, the inhibition at 100 µM in [7] turned out to be 28 ± 3%; in experiment [8], 80 ± 3%; in experiment [9], 29 ± 2%; in [10], 4 ± 1%. The IC50 in experiment [8] is 67.2 µM.

As for `Clc1ccc(-c2nnc3n2CCCS3)cc1` [5k, 3-(4-Chlorophenyl)-6,7-dihydro-5H-[1,2,4]triazolo[3,4-b][1,3]thiazine], the “Inhibition % VIM-5” value in experiment [6] (@ 100 μM) was 12 ± 1/– %. The inhibition at 10 µM was 17% in [7], 58% in experiment [8] and 5% in experiment [10]. The inhibition at 100 µM in experiment [7] stood at 14 ± 1%; in experiment [8] it was 84 ± 6%; in experiment [9] it was 28 ± 2%; in [10], 7 ± 1%. Besides, the IC50 in experiment [8] is 47.2 µM.

The values above are taken from article PMC6982996, “Discovery of [1,2,4]Triazole Derivatives as New Metallo-β-Lactamase Inhibitors” (Molecules, 2019).
